{"source": "patent US11123300B2", "about": "“Immediate release tablet of a benzothiophene compound” (Hexal AG, priority 2016, dated 2021)", "origin": "cited, not measured here"}
{"smiles": "O=c1ccc2ccc(OCCCCN3CCN(c4cccc5sccc45)CC3)cc2[nH]1", "note": "[brexpiprazole, 7-[4-[4-(1-Benzothiophen-4-yl)piperazin-1-yl]butoxy]quinolin-2(1H)-one]", "values": [{"measurement": "solubility of brexpiprazole in water", "result": 2.27, "unit": "µg/mL"}]}
